Assay results from patent US20260217683A1, “PYRIDAZINONE HETEROCYCLIC COMPOUND MYOSIN II INHIBITOR AND USE THEREOF” (Xizang Haisco Pharmaceutical Co., Ltd., priority 2023, published 2026).
Like-named read-outs stand apart in the source and are kept apart here.

Tests used:
[1] = test system: rabbit skeletal muscle myosin; experiment: Inhibition of hydrolysis of ATP by rabbit skeletal muscle myosin; assay type: biochemical
Outline: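 Actin-activated ATPase: F-actin plus rabbit skeletal myosin II with compound in Tris-HCl pH 7.5/KCl/EGTA/MgCl2, started with ATP (3 mM working stock) and run 60 min at 37 °C. Released Pi measured by CytoPhos absorbance at 650 nm against a phosphate standard curve; IC50 fitted from inhibition relative to uninhibited myosin.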

cardiac myosin SII = biological target: T1, cardiac myosin SII (Bos taurus, UniProt Q9BE39); experiment: Inhibition of hydrolysis of ATP by cardiac myosin SII; assay type: biochemical; conditions: 100 μM compound
T1 construct: purchased Cytoskeleton #MYO3-A
T1 sequence (Q9BE39 whole entry): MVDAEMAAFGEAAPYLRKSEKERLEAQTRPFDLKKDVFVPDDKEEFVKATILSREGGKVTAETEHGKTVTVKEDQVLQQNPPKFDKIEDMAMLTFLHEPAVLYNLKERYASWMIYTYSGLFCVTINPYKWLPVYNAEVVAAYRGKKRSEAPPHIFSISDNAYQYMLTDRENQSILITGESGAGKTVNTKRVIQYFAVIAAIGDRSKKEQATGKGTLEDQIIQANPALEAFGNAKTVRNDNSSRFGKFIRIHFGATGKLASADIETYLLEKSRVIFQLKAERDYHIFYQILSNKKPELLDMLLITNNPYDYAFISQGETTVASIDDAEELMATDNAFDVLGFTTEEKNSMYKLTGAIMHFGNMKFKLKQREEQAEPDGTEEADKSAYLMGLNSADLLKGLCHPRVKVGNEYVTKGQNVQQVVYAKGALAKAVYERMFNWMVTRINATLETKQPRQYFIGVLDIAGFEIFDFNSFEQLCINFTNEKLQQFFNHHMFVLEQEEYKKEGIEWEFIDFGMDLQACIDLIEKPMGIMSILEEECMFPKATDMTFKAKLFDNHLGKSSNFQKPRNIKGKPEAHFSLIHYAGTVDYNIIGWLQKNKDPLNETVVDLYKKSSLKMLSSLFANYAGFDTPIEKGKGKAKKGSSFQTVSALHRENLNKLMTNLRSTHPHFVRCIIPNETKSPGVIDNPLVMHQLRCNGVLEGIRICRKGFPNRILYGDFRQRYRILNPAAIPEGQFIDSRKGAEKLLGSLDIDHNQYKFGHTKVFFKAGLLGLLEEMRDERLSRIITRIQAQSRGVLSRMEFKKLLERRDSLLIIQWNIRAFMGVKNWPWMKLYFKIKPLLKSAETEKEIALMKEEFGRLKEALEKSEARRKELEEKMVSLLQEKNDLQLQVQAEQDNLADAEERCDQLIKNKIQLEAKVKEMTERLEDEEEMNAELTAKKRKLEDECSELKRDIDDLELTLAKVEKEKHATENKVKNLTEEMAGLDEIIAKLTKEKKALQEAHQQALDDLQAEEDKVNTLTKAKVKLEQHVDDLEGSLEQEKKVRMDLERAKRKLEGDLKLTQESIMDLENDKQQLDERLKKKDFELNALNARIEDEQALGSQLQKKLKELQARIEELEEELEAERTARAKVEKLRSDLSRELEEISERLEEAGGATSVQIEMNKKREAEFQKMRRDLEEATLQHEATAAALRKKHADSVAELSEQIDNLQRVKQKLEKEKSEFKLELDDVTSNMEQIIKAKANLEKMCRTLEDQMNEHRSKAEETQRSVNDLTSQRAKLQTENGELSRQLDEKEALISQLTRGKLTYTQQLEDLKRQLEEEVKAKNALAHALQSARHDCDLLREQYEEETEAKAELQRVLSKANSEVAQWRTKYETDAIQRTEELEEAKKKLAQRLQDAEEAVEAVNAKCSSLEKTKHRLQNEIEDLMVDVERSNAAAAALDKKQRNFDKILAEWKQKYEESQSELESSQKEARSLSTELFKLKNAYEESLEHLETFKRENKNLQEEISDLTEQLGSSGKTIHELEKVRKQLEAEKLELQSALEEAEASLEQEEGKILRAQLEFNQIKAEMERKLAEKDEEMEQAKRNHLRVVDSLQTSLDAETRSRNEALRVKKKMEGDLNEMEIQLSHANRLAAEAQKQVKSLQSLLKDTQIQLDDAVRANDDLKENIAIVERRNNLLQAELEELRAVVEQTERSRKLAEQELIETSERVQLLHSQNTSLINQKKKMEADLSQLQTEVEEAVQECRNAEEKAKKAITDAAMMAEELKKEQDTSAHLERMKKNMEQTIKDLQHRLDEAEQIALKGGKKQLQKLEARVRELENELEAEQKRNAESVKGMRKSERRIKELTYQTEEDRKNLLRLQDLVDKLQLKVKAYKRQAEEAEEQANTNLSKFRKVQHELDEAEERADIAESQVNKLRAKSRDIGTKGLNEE
T1 sequence (P85100 whole entry partner): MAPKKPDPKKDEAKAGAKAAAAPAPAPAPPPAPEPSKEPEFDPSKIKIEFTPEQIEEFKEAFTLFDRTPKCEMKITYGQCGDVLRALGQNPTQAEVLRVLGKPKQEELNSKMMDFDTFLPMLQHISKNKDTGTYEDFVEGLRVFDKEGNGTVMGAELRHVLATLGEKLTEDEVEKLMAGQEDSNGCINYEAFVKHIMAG
T1 sequence (Q3SZE5 whole entry partner): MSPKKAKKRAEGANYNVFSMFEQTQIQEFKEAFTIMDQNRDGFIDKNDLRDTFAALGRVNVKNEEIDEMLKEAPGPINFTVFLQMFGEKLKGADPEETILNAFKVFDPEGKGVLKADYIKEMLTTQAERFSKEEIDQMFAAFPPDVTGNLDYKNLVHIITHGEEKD
Outline: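 Bovine cardiac myosin with preformed F-actin in 15 mM Tris-HCl pH 7.5, 10 mM KCl, 2 mM MgCl2, 0.1 mM EGTA; compounds at 100 μM final, ATP from 3 mM working solution, 2 h at 37 °C. Released Pi measured colorimetrically at 650 nm against a Pi standard curve; % inhibition vs. DMSO control.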

CYP3A4 = biological target: T2, CYP3A4 (Homo sapiens, UniProt P08684); experiment: CYP450 enzyme inhibition, human liver microsomes, CYP3A4; assay type: in vitro ADME
T2 construct: incubated with human liver microsomes and test compounds of different concentrations; from tissue; host or cells: human liver microsomes
T2 sequence (P08684 whole entry): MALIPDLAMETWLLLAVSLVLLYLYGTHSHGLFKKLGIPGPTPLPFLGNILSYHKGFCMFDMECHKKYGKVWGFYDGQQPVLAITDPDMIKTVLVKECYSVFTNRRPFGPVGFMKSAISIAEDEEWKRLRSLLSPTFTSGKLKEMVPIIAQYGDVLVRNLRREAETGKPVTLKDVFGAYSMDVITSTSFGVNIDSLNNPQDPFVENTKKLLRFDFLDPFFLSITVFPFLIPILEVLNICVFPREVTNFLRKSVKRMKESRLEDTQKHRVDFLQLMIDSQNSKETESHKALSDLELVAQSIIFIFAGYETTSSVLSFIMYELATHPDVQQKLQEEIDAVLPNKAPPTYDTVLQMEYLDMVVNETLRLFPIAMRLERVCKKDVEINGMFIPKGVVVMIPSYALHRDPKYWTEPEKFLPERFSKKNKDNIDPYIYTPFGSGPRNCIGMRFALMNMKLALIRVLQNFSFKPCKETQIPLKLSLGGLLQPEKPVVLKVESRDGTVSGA
Description: (§1) The purpose of this study was to evaluate the effect of the test compound on the activity of five isoenzymes (CYP1A2, CYP2C9, CYP2C19, CYP2D6 and CYP3A4) of human liver microsomal cytochrome P450 (CYP) by using an in vitro testing system. The specific probe substrates of CYP450 isoenzymes were incubated with human liver microsomes and test compounds of different concentrations, and reduced nicotinamide adenine dinucleotide phosphate (NADPH) was added to initiate the reaction. After the completion of the reaction, the sample was treated and liquid chromatography-tandem mass spectrometry (LC-MS/MS) was used to quantitatively detect metabolites produced by specific substrates, changes in CYP enzyme activity were determined, and IC50 value was calculated to evaluate the inhibitory potential of the test compound on each CYP enzyme subtype.

CYP2C9 = biological target: T3, CYP2C9 (Homo sapiens, UniProt P11712); experiment: CYP450 enzyme inhibition, human liver microsomes, CYP2C9; assay type: in vitro ADME
T3 construct: incubated with human liver microsomes and test compounds of different concentrations; from tissue; host or cells: human liver microsomes
T3 sequence (P11712 whole entry): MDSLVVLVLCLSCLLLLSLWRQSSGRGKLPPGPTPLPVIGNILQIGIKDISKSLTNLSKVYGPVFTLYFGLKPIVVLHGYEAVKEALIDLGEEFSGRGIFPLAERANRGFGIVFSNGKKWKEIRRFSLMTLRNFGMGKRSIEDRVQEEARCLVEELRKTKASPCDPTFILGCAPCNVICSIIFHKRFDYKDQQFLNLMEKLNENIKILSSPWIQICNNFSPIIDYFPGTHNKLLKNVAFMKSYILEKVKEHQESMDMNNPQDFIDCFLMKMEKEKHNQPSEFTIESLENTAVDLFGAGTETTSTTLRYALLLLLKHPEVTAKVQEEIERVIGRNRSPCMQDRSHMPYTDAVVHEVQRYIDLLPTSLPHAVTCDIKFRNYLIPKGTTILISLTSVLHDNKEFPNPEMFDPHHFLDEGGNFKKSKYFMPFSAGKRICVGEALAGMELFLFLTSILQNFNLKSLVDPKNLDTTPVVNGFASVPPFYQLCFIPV
Description: as §1

CYP2D6 = biological target: T4, CYP2D6 (Homo sapiens, UniProt P10635); experiment: CYP450 enzyme inhibition, human liver microsomes, CYP2D6; assay type: in vitro ADME
T4 construct: incubated with human liver microsomes and test compounds of different concentrations; from tissue; host or cells: human liver microsomes
T4 sequence (P10635 whole entry): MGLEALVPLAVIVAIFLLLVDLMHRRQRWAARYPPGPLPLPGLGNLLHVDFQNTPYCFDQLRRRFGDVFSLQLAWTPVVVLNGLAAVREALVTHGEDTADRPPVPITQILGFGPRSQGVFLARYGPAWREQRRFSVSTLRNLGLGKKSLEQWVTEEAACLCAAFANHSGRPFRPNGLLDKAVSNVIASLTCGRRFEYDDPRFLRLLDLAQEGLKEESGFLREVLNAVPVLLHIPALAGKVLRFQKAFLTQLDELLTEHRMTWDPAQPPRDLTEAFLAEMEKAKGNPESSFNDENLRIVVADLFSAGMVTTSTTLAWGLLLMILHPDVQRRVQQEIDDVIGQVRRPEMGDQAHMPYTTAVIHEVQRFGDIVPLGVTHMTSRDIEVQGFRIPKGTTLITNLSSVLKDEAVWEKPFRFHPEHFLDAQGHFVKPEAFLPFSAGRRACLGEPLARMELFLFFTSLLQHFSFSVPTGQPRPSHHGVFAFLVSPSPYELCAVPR
Description: as §1

CYP2C19 = biological target: T5, CYP2C19 (Homo sapiens, UniProt P33261); experiment: CYP450 enzyme inhibition, human liver microsomes, CYP2C19; assay type: in vitro ADME
T5 construct: incubated with human liver microsomes and test compounds of different concentrations; from tissue; host or cells: human liver microsomes
T5 sequence (P33261 whole entry): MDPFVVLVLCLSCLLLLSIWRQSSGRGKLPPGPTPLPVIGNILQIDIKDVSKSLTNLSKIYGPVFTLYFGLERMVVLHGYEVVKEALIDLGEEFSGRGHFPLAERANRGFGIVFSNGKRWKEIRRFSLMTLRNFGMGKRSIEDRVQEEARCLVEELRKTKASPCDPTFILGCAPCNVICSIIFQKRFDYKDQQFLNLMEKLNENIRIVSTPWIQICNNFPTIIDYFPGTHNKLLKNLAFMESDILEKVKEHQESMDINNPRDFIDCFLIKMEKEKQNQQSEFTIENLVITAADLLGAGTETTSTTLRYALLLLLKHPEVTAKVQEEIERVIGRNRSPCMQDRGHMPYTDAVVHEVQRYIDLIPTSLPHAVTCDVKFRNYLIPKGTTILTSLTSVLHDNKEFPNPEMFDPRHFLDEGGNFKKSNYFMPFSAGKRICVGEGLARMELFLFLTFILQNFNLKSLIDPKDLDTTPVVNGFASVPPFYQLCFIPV
Description: as §1

[2] = inhibition of hydrolysis of ATP, class symbols, read-out: Rabbit skeletal muscle myosin (IC50)
[3] = read-out: IC50 for inhibition of hydrolysis of ATP by rabbit skeletal muscle myosin

Structure (SMILES): O=c1ccc(-c2cnc(OCC(F)(F)F)nc2)nn1Cc1ccc2c(c1)CCC2 [Compound 57]
- IC50 [1, 2]: < 2.5 µM
- IC50 [1, 3]: 0.33 µM
- inhibition at 100 µM (cardiac myosin SII): 1.5%

Structure (SMILES): O=C1CCc2ccc(Cn3nc(-c4cnc(OCC(F)(F)F)nc4)ccc3=O)cc21 [Compound 88]
- IC50 [1, 2]: < 2.5 µM
- IC50 [1, 3]: 0.8 µM
- IC50 (CYP3A4): > 30 µM
- IC50 (CYP2C9): > 30 µM
- IC50 (CYP2D6): > 30 µM
- IC50 (CYP2C19): > 30 µM

Structure (SMILES): O=C1CCc2ccc(Cn3nc(-c4cnc(OCC(F)F)nc4)ccc3=O)cc21 [Compound 131]
- IC50 [1, 2]: < 2.5 µM
- IC50 [1, 3]: 0.4 µM
- IC50 (CYP3A4): > 30 µM
- IC50 (CYP2C9): > 30 µM
- IC50 (CYP2D6): > 30 µM
- IC50 (CYP2C19): > 30 µM

Structure (SMILES): O=C1CCc2ccc(Cn3nc(-c4cnc(OC5CC(F)(F)C5)nc4)ccc3=O)cc21 [Compound 141]
- IC50 [1, 2]: < 2.5 µM
- IC50 [1, 3]: 0.8 µM
- IC50 (CYP3A4): > 30 µM
- inhibition at 100 µM (cardiac myosin SII): 14%
- IC50 (CYP2C9): > 30 µM
- IC50 (CYP2D6): > 30 µM
- IC50 (CYP2C19): > 30 µM

Structure (SMILES): O=C1CCc2ccc(Cn3nc(-c4cnc(O[C@@H]5CCOC5)nc4)ccc3=O)cc21 [Compound 149]
- IC50 [1, 2]: < 2.5 µM
- IC50 (CYP3A4): > 30 µM
- inhibition at 100 µM (cardiac myosin SII): 10%
- IC50 (CYP2C9): > 30 µM
- IC50 (CYP2D6): > 30 µM
- IC50 (CYP2C19): > 30 µM

Structure (SMILES): O=C1CCc2ccc(Cn3nc(-c4cnc(O[C@H]5CCOC5)nc4)ccc3=O)cc21 [Compound 150]
- IC50 [1, 2]: < 2.5 µM
- inhibition at 100 µM (cardiac myosin SII): 15%

Structure (SMILES): O=C1CCc2ccc(Cn3nc(-c4cnc(Oc5cncc(Cl)c5)nc4)ccc3=O)cc21 [Compound 151]
- IC50 [1, 2]: < 2.5 µM
- IC50 [1, 3]: 0.7 µM
- IC50 (CYP3A4): > 30 µM
- inhibition at 100 µM (cardiac myosin SII): -2%
- IC50 (CYP2C9): > 30 µM
- IC50 (CYP2D6): > 30 µM
- IC50 (CYP2C19): > 30 µM

Structure (SMILES): N#CC1(COc2ncc(-c3ccc(=O)n(Cc4ccc5c(c4)C(=O)CC5)n3)cn2)CC1 [Compound 158]
- IC50 [1, 2]: < 2.5 µM
- IC50 (CYP3A4): > 30 µM
- inhibition at 100 µM (cardiac myosin SII): 10%
- IC50 (CYP2C9): > 30 µM
- IC50 (CYP2D6): > 30 µM
- IC50 (CYP2C19): > 30 µM

Structure (SMILES): O=C1CCc2ccc(Cn3nc(-c4cnc(OC5COCC5(F)F)nc4)ccc3=O)cc21 (stereo not shown) [Compound 164]
- IC50 [1, 2]: < 2.5 µM
- IC50 (CYP3A4): > 30 µM
- inhibition at 100 µM (cardiac myosin SII): 4%
- IC50 (CYP2C9): > 30 µM
- IC50 (CYP2D6): > 30 µM
- IC50 (CYP2C19): > 30 µM

Structure (SMILES): O=C1CCc2c(F)cc(Cn3nc(-c4cnc(O[C@H]5CCOC5)nc4)ccc3=O)cc21 [Compound 165]
- IC50 [1, 2]: 2.5 to 20 µM
- IC50 (CYP3A4): > 30 µM
- IC50 (CYP2C9): > 30 µM
- IC50 (CYP2D6): > 30 µM
- IC50 (CYP2C19): > 30 µM

Structure (SMILES): O=C1CCc2c(F)cc(Cn3nc(-c4cnc(OCC(F)F)nc4)ccc3=O)cc21 [Compound 167]
- IC50 [1, 2]: < 2.5 µM
- IC50 [1, 3]: 0.27 µM
- IC50 (CYP3A4): > 30 µM
- inhibition at 100 µM (cardiac myosin SII): 4%
- IC50 (CYP2C9): > 30 µM
- IC50 (CYP2D6): > 30 µM
- IC50 (CYP2C19): > 30 µM
